Converted amounts (≈) assume the structure as drawn. Like-named read-outs stand apart in the source and are kept apart here.
Legend:
[1] = tested on: Bacillus Calmette-Guérin (BCG); assay: organism not typed; assay type: cell-based, Mycobacterium bovis
M. terrae BZ-15 = assay: MIC on closely related bacteria: M. terrae; assay type: cell-based; settings: Mycolicibacter terrae, BZ15
M. abscessus BZ-24 = assay: MIC on closely related bacteria: M. abscessus; assay type: cell-based; settings: Mycobacteroides abscessus, BZ24
MTB H37Rv = assay: microbe, parasite or virus in culture; assay type: cell-based, Mycobacterium tuberculosis; settings: susceptible H37Rv
M. cheelonae BZ-4 = assay: MIC on closely related bacteria: M. cheelonae; assay type: cell-based
M. avium A209 = assay: MIC on closely related bacteria: M. avium; assay type: cell-based; settings: Mycobacterium avium
M. scrofulaceum BZ-20 = assay: MIC on closely related bacteria: M. scrofulaceum; assay type: cell-based; settings: Mycobacterium scrofulaceum, BZ20
M. xenopi BZ-23 = assay: MIC on closely related bacteria: M. xenopi; assay type: cell-based; settings: Mycobacterium xenopi, BZ23
[2] = tested on: intracellular BCG within macrophages; assay type: cell-based, Mycobacterium bovis
[3] = tested on: GFP-expressing BCG in infected THP-1 cells; assay: microbe, parasite or virus in culture; assay type: cell-based; settings: Mycobacterium tuberculosis variant bovis BCG, THP-1, read-out: IC50, growth of GFP-expressing BCG in infected THP-1 cells
in vitro = settings: human
MTT cytotoxicity assay = settings: human
[4] = tested on: clinical Mycobacterium tuberculosis strains (HsRs: 90#, 140#, 74#); assay: microbe, parasite or virus in culture; assay type: cell-based
[5] = read-out: MIC from in vitro validation
[6] = read-out: MIC from in vitro validation on BCG

Molecule `O=c1/c(=C/c2cc(Br)ccc2F)sc2nc3ccccc3n12` [CAS 292169-72-3, (Z)-2-(5-Bromo-2-fluorobenzylidene)benzo[4,5]imidazo[2,1-b]thiazol-3(2H)-one] has an MIC [1, 5] greater than 128 µg/mL.
Molecule `O=[N+]([O-])c1ccccc1CNCCc1c[nH]c2ccccc12` [CAS 355816-45-4, 2-(1H-indol-3-yl)-N-(2-nitrobenzyl)ethanamine] has an MIC [1, 5] of 128 µg/mL (≈ 433 µM).
With `CO[C@@H]1[C@@H](OC(=O)c2ccc(C)[nH]2)[C@@H](O)[C@H](Oc2ccc3c(O)c(NC(=O)c4ccc(O)c(CC=C(C)C)c4)c(=O)oc3c2Cl)OC1(C)C` [NSC 227186, [(3R,4S,5R,6S)-6-[8-chloro-4-hydroxy-3-[[4-hydroxy-3-(3-methylbut-2-enyl)benzoyl]amino]-2-oxochromen-7-yl]oxy-5-hydroxy-3-methoxy-2,2-dimethyloxan-4-yl]5-methyl-1H-pyrrole-2-carboxylate] the MIC (M. terrae BZ-15) was greater than 80 µg/mL, the MIC (M. abscessus BZ-24) was 40 µg/mL (≈ 57.4 µM) and the MIC (MTB H37Rv; Mycobacterium tuberculosis, Table 4, read-out: MIC) was less than 0.625 µg/mL. The MIC (M. cheelonae BZ-4) was 40 µg/mL (≈ 57.4 µM), the MIC (M. avium A209) was 80 µg/mL (≈ 115 µM) and the “performance on BCG compared with isoniazid and rifampicin” value [1] was “performed at levels comparable of isoniazid and rifampicin”. The MIC [1, 6] was 0.625 µg/mL (≈ 0.897 µM), the MIC (M. scrofulaceum BZ-20) was 80 µg/mL (≈ 115 µM) and the MIC (M. xenopi BZ-23) was 80 µg/mL (≈ 115 µM).
`COc1ccc(N2COc3ccc4cc(Br)ccc4c3C2)cc1` [CAS 376374-34-4, 8-bromo-2-(4-methoxyphenyl)-2,3-dihydro-1H-naphtho[1,2-e][1,3]oxazine] gave an MIC [1, 5] of 128 µg/mL (≈ 346 µM).
With `Cn1ccc(=Nc2ccc(NC(=O)c3ccc(N=c4ccn(C)c5ccc([N+](=O)[O-])cc45)cc3)cc2)cc1` [NSC 260594, 4-[(1-methyl-6-nitroquinolin-4-ylidene)amino]-N-[4-[(1-methylpyridin-4-ylidene)amino]phenyl]benzamide] the MIC (M. terrae BZ-15) was 2.5 µg/mL (≈ 4.95 µM), the “intracellular anti-TB activity against BCG” value [2] was “time- and concentration-dependent anti-TB activity” and the MIC (M. abscessus BZ-24) was greater than 80 µg/mL. The IC50 [3] was 7.8 µg/mL (≈ 15.5 µM), the MIC (MTB H37Rv; Mycobacterium tuberculosis, Table 7 and text, read-out: MIC) was less than 0.625 µg/mL and the MIC (MTB H37Rv; Table 4) was less than 0.625 µg/mL. The MIC (MTB H37Rv; Table 7 and text) was less than 0.625 µg/mL, the IC50 (in vitro) was 7.5 µg/mL (≈ 14.9 µM) and the MIC (M. cheelonae BZ-4) was greater than 80 µg/mL. The MIC (M. avium A209) was 1.25 µg/mL (≈ 2.48 µM), the “performance on BCG compared with isoniazid and rifampicin” value [1] was “performed at levels comparable of isoniazid and rifampicin” and the MIC [1, 6] was 0.078 µg/mL (≈ 0.155 µM). It also gave an MIC (M. scrofulaceum BZ-20) greater than 80 µg/mL and an MIC (M. xenopi BZ-23) greater than 80 µg/mL.
With `O=C1CC(c2cccc(O)c2)Nc2ccc3ccccc3c21` (centres unmarked) [CAS 333759-52-7, 3-(3-hydroxyphenyl)-3,4-dihydrobenzo[f]quinolin-1(2H)-one] the MIC [1, 5] was greater than 128 µg/mL.
`O=C(Nc1ccc(Oc2ccc(NC(=O)Nc3ccccc3Cl)cc2)cc1)Nc1ccccc1Cl` [NSC 80731, 1-(2-chlorophenyl)-3-[4-[4-[(2-chlorophenyl)carbamoylamino]phenoxy]phenyl]urea] showed an MIC [1, 6] of 80 µg/mL (≈ 158 µM).
For `O=C(Nc1cccc(-c2nc3ccccc3[nH]2)c1)c1ccc(C(=O)Nc2cccc(-c3nc4ccccc4[nH]3)c2)cc1` [NSC 61610, 1-N,4-N-bis[3-(1H-benzimidazol-2-yl)phenyl]benzene-1,4-dicarboxamide], the MIC [1, 6] was 40 µg/mL (≈ 72.9 µM).
In the case of `O=C(O)C1C2C(=O)N(Cc3ccccn3)C[C@]23C=C[C@H]1O3` (stereo partly drawn) [CAS 1164528-69-1, (3aS,6R)-1-oxo-2-(pyridin-2-ylmethyl)-1,2,3,6,7,7a-hexahydro-3a,6-epoxyisoindole-7-carboxylic acid], the MIC [1, 5] is reported as greater than 128 µg/mL.
For `c1ccc2cc(OCCOCCOc3ccc4ccccc4c3)ccc2c1` [NSC 37219, 2-[2-(2-naphthalen-2-yloxyethoxy)ethoxy]naphthalene], the MIC [1, 6] was 80 µg/mL (≈ 223 µM).
`O=[N+]([O-])c1ccc(C2CC(c3ccccc3)=Nc3ccccc3S2)cc1` (centres unmarked) [NSC 270738, 2-(4-nitrophenyl)-4-phenyl-2,3-dihydro-1,5-benzothiazepine] showed an MIC [1, 6] of 5 µg/mL (≈ 13.9 µM).
Molecule `CO[C@H]1/C=C/O[C@@]2(C)Oc3c(C)c(O)c4c(O)c(c(/C=N/N5CCN(C)CC5)c(O)c4c3C2=O)NC(=O)/C(C)=C\C=C\[C@H](C)[C@H](O)[C@@H](C)[C@@H](O)[C@@H](C)[C@H](OC(C)=O)[C@@H]1C` [Rifampicin, reference compound] has an IC50 (MTT cytotoxicity assay) of 1 µg/mL (≈ 1.22 µM).
Work on `O=[N+]([O-])c1cccc(CNC2CCCc3ccccc32)c1` (centres unmarked) [CAS 353779-33-6, N-(3-nitrobenzyl)-1,2,3,4-tetrahydronaphthalen-1-amine] yielded an MIC [1, 5] of 128 µg/mL (≈ 453 µM).
`Cc1ccc2[nH]c3c(c2c1)CCCC3NCc1ccccc1` (centres unmarked) [CAS 118498-98-9, N-benzyl-6-methyl-2,3,4,9-tetrahydro-1H-carbazol-1-amine] showed an MIC [4] of 6.4 µg/mL (≈ 22 µM), an MIC ([4]; strain 74#, HsRs, read-out: MIC) of 6.4 µg/mL (≈ 22 µM) and an MIC ([4]; strain 140#, HsRs, read-out: MIC) of 3.2 µg/mL (≈ 11 µM). For the same molecule, the MIC [1, 5] was 32 µg/mL (≈ 110 µM).

— patent US11529354B2, “Methods and compositions for the treatment of tuberculosis” (PRESIDENT AND FELLOWS OF HARVARD COLLEGE, priority 2017, dated 2022)
